The structures appear in SMILES notation.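 Compound exposure: 48 hours, 5 concentrations, 96-well plates. GI50: concentration for 50% inhibition of growth.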 Active and inactive are the calls of the source. Cut-off read from the data, not from the text of the source: active = GI50 up to about 1.1 µM and inactive = higher.

The source of these data is ChEMBL document CHEMBL1201862, “PubChem BioAssay data set” (2004).

Test systems include MDA-MB-435; NCI/ADR-RES; UACC-257; RXF 393; UO-31; OVCAR-4; K562; SK-OV-3; SF-268; SNB-19; BT-549; SN12C; EKVX; ACHN; MOLT-4; SF-539; T47D; HOP-62; U-251; MDA-N.
What all share (experiment): NCI tumour cell line growth inhibition, 48 h

`CC(=O)Nc1ccc2c3c(cc(O)c2c1)N(C(=O)CCCCCCC(=O)Nc1ccc2c4c(cc(O)c2c1)N(C(=O)OC(C)(C)C)CC4CCl)CC3CCl` (stereo not given): the GI50 in the test with MDA-MB-435 is 0.132 µM (active); in the test with NCI/ADR-RES, > 35.4 µM (inactive); in the test with UACC-257 it was 0.148 µM (active); in the test with RXF 393, 0.016 µM (active); in the test on UO-31, 1.04 µM (active); in the test with OVCAR-4, 0.218 µM (active). In addition, the GI50 in the test with K562 is 0.117 µM (active); in the test on SK-OV-3 it was 0.0705 µM (active); in the test with SF-268, 0.0291 µM (active); with SNB-19 it was 0.046 µM (active); in the test on BT-549 it was 0.146 µM (active); with SN12C, 0.13 µM (active). Also, the GI50 in the test on EKVX was 0.304 µM (active); in the test on ACHN, 0.0484 µM (active); with MOLT-4, < 0.01 µM (active); in the test on SF-539, 0.0637 µM (active); in the test with T47D, 0.0573 µM (active); in the test on HOP-62 it was 0.091 µM (active). Also, the results for the GI50 with U-251 and in the test on MDA-N were 0.0205 µM (active) and 0.134 µM (active), respectively.

Consider `COC(=O)c1cc(C#N)[nH]c1-c1ccc(C)s1`, for which the GI50 in the test with MDA-MB-435 was 91.4 µM (inactive); in the test with NCI/ADR-RES, 31.1 µM (inactive); in the test with UACC-257 it was 64.7 µM (inactive); with RXF 393, 11.5 µM (inactive); in the test with UO-31 it was 42.9 µM (inactive); in the test with OVCAR-4, 76.2 µM (inactive). Moreover, the GI50 in the test on K562 is > 100 µM (inactive); in the test with SK-OV-3, 55.5 µM (inactive); in the test with SF-268 it was 42.2 µM (inactive); in the test with SNB-19 it was > 100 µM (inactive); in the test with BT-549, 30.5 µM (inactive); in the test with SN12C, 63.2 µM (inactive). Also, the GI50 in the test on EKVX is 19.5 µM (inactive); in the test with ACHN it was 41.3 µM (inactive); with MOLT-4, > 100 µM (inactive); in the test on SF-539, > 100 µM (inactive); in the test on T47D it was 25.6 µM (inactive); in the test on HOP-62 it was 33 µM (inactive). Also, the GI50 in the test on U-251 is 95.5 µM (inactive); in the test on MDA-N it was > 100 µM (inactive).

Turning to `CC(=O)O[C@H]1CC[C@@]2(C)C(=CC[C@H]3[C@@H]4CC[C@H](c5cc(C(F)(F)F)n(C(C)=O)n5)[C@@]4(C)CC[C@@H]32)C1`, the GI50 in the test on MDA-MB-435 was 9.27 µM (inactive); in the test with NCI/ADR-RES, 4.83 µM (inactive); with UACC-257, 5.52 µM (inactive); in the test on RXF 393, 5.68 µM (inactive); in the test on UO-31, 1.67 µM (inactive); with OVCAR-4, 3.31 µM (inactive). Besides, the GI50 with K562 was 3.35 µM (inactive); with SK-OV-3, 12.5 µM (inactive); in the test with SF-268, 24.8 µM (inactive); in the test with SNB-19, 11 µM (inactive); in the test with BT-549 it was 10.7 µM (inactive); in the test on SN12C, 7.57 µM (inactive). Also, the GI50 in the test on EKVX was 7.28 µM (inactive); with ACHN, 7.8 µM (inactive); in the test with MOLT-4, 2.47 µM (inactive); in the test with SF-539, 6.47 µM (inactive); in the test with T47D, 6.41 µM (inactive); in the test on HOP-62, 8.2 µM (inactive). Further, the GI50 in the test on U-251 is 4.79 µM (inactive); with MDA-N it was 11.3 µM (inactive).

For the molecule `Cc1nnc2n1-c1ccccc1N(Cc1ccccc1)CC2`, the GI50 in the test with MDA-MB-435 was 51.4 µM (inactive); in the test on NCI/ADR-RES, 13.8 µM (inactive); in the test with UACC-257 it was 63.1 µM (inactive); with RXF 393 it was 34.8 µM (inactive); with UO-31, 34.5 µM (inactive); in the test on OVCAR-4 it was 71.9 µM (inactive). For the same molecule, the GI50 with K562 was 20.3 µM (inactive); in the test on SK-OV-3, > 100 µM (inactive); with SF-268, 58.9 µM (inactive); with SNB-19, > 100 µM (inactive); in the test with BT-549, 22.1 µM (inactive); in the test on SN12C, 58.7 µM (inactive). Besides, the GI50 with EKVX was 34.2 µM (inactive); with ACHN, 49.5 µM (inactive); in the test on MOLT-4, 23.8 µM (inactive); with SF-539, > 100 µM (inactive); with T47D it was 41.2 µM (inactive); in the test with HOP-62 it was > 100 µM (inactive). For the same molecule, the GI50 in the test on U-251 was 50 µM (inactive); with MDA-N, 46.2 µM (inactive).

As to `O=C1C2CC=CCC2C(=O)N1n1c(Cc2ccccc2)n[nH]c1=O` (stereo not given), the GI50 in the test with MDA-MB-435, in the test on NCI/ADR-RES, with UACC-257, with RXF 393, in the test with UO-31 and with OVCAR-4 was > 100 µM (inactive) each time. Besides, the GI50 in the test with K562, with SK-OV-3, with SF-268, with SNB-19, with BT-549 and in the test with SN12C was > 100 µM (inactive) each time. Also, the GI50 with EKVX, with ACHN, with MOLT-4, with SF-539, with T47D and in the test on HOP-62 was > 100 µM (inactive) in each case. Moreover, the GI50 in the test on U-251 and in the test with MDA-N was > 100 µM (inactive) throughout.

`O=C(/C=C/c1ccsc1)c1ccco1`: the GI50 with MDA-MB-435 is 20 µM (inactive); in the test on NCI/ADR-RES, 16.6 µM (inactive); in the test with UACC-257, 17.3 µM (inactive); in the test with RXF 393, 13.3 µM (inactive); in the test on UO-31, 8.87 µM (inactive); in the test with OVCAR-4, 5.24 µM (inactive). Besides, the GI50 was 4.71 µM (inactive) in the test on K562; 18.5 µM (inactive) in the test with SK-OV-3; 17.1 µM (inactive) with SF-268; 15.5 µM (inactive) with SNB-19; 18.5 µM (inactive) in the test on BT-549; 14.6 µM (inactive) in the test with SN12C. Besides, the GI50 in the test with EKVX is 16.4 µM (inactive); in the test on ACHN it was 10.8 µM (inactive); in the test with MOLT-4 it was 4.34 µM (inactive); in the test with SF-539 it was 14.4 µM (inactive); with T47D, 11.8 µM (inactive); in the test on HOP-62, 14.9 µM (inactive). For the same molecule, the figures for the GI50 in the test on U-251 and with MDA-N were 7.67 µM (inactive) and 12.1 µM (inactive), respectively.

Turning to `CN(CCNC(=O)c1n[nH]c2c1ccc1ccccc12)CCNC(=O)c1n[nH]c2c1ccc1ccccc12`, the GI50 with MDA-MB-435 is 1.79 µM (inactive); with NCI/ADR-RES, > 100 µM (inactive); in the test with UACC-257, 24.4 µM (inactive); in the test on RXF 393, 1.94 µM (inactive); in the test on UO-31, 7.35 µM (inactive); in the test with OVCAR-4, 1.82 µM (inactive). The GI50 in the test with K562 is 2.26 µM (inactive); in the test on SK-OV-3, 4.79 µM (inactive); in the test with SF-268, 2.14 µM (inactive); with SNB-19, 1.89 µM (inactive); in the test with BT-549, 20.2 µM (inactive); in the test with SN12C, 1.8 µM (inactive). Besides, the GI50 is 1.63 µM (inactive) in the test with EKVX; 1.83 µM (inactive) with ACHN; 2.77 µM (inactive) in the test with MOLT-4; 1.79 µM (inactive) in the test on SF-539; 2.42 µM (inactive) with T47D; 2.11 µM (inactive) in the test on HOP-62. In addition, the figures for the GI50 in the test on U-251 and in the test on MDA-N were 1.93 µM (inactive) and 1.86 µM (inactive), respectively.
